Source: ChEMBL document CHEMBL1131292, “Synthesis and pharmacology of a new AMPA-kainate receptor agonist with potent convulsant activity” (J Med Chem, 1998)

Key:
Mus musculus [1] = test: In Vivo evaluation of the Compound administered through icv for the Clonic seizure presence along with the antagonist GYKI 52466 in mice.; type: functional
Mus musculus [2] = test: In Vivo evaluation of the Compound administered through icv for the Clonic seizure presence alone in mice.; type: functional
Glutamate NMDA receptor = test: Compound was evaluated for binding affinity at N-methyl-D-aspartate glutamate receptor using [3H]CPP as radioligand; type: protein-complex assay
Mus musculus [3] = test: In Vivo evaluation of the Compound administered through icv for tonicity in presence of the compound along with the antagonist NBQX in mice.; type: functional
Mus musculus [4] = test: In Vivo evaluation of the Compound administered through icv for the Clonic seizure presence of the compound along with the antagonist NBQX in mice.; type: functional
Mus musculus [5] = test: In Vivo evaluation of the Compound administered through icv for tonicity in presence alone in mice.; type: functional
Mus musculus [6] = test: In Vivo evaluation of the Compound administered through icv for the Clonic seizure presence along with […] in mice.; type: functional
Mus musculus [7] = test: In Vivo evaluation of the Compound administered through icv for tonicity in presence along with the antagonist GYKI 52466 in mice.; type: functional
Mus musculus [8] = test: In Vivo evaluation of the Compound administered through icv for tonicity in presence along with […] in mice.; type: functional
Mus musculus [9] = test: In Vivo evaluation of the Compound administered through icv for the for tonicity in presence along with the antagonist GYKI 52466 in mice; type: functional
Mus musculus [10] = test: In Vivo evaluation of the Compound administered through icv for tonicity in presence alone in mice; type: functional
Mus musculus [11] = test: In Vivo evaluation of the Compound administered through icv for the for tonicity in presence along with […] in mice; type: functional
Mus musculus [12] = test: In Vivo evaluation of the Compound administered through icv for the for tonicity in presence of the compound along with the antagonist NBQX in mice; type: functional
Mus musculus [13] = test: In Vivo evaluation of the Compound administered through icv for the Clonic seizure presence of the compound along with the antagonist NBQX in mice; type: functional
Mus musculus [14] = test: In Vivo evaluation of the Compound administered through icv for the Clonic seizure presence along with the antagonist NBQX in mice.; type: functional
Mus musculus [15] = test: In Vivo evaluation of the Compound administered through icv for tonicity in presence along with the antagonist NBQX in mice.; type: functional
Mus musculus [16] = test: In Vivo evaluation of the Compound administered through icv for the tonicity in presence along with the antagonist GYKI 52466 in mice.; type: functional
[17] = target: Glutamate receptor ionotropic, kainate; test: Compound was evaluated for binding affinity at Ionotropic glutamate receptor kainate using [3H]- KAIN as radioligand; type: protein-complex assay
[18] = target: Glutamate receptor ionotropic, AMPA (Rattus norvegicus, UniProt P19490+P19491+P19492+P19493)
Description: Compound was evaluated for binding affinity at Ionotropic glutamate receptor AMPA using [3H]AMPA as radioligand

Mus musculus [19] = test: In Vivo evaluation of the Compound administered through icv for the Clonic seizure presence along with the antagonist GYKI 52466 in mice; type: functional
[20] = Potency ratio (the ratio between the CD50 value of the drug in the presence of antagonist versus its CD50 value) for compound in presence of CPP compound in presence of NBQX; range 1.1-1.3; type: functional
Mus musculus [21] = test: In Vivo evaluation of the Compound administered through icv for the Clonic seizure presence along with […] in mice. (+/-95% confidence limits within parenthesis); nM per mouse; type: functional
[22] = Potency ratio (the ratio between the CD50 value of the drug in the presence of antagonist versus its CD50 value) for compound in presence of GYKI 52466; range 1.4-2.1; type: functional
Mus musculus [23] = test: In Vivo evaluation of the Compound administered through icv for the tonicity in presence alone in mice.; type: functional
[24] = Potency ratio (the ratio between the CD50 value of the drug in the presence of antagonist versus its CD50 value) for compound in presence of CPP; range 2.9-3.4; type: functional

SMILES	CD50 (Mus musculus [1]) [nmol/mouse]	CD50 (Mus musculus [2]) [nmol/mouse]	IC50 (Glutamate NMDA receptor) [µM]	CD50 (Mus musculus [6]) [nmol/mouse]	CD50 (Mus musculus [8])	IC50 [17] [µM]	IC50 [18] [µM]	further results
C=C(C)[C@H]1CN[C@H](C(=O)O)[C@H]1CC(=O)O [KAINIC ACID]	0.071	0.015	> 100	0.024	0.071 nmol/mouse	–	–	CD50 (Mus musculus [3]): 0.468 nmol/mouse; CD50 (Mus musculus [4]): 0.094 nmol; CD50 (Mus musculus [5]): 0.032 nmol/mouse; CD50 (Mus musculus [7]): 0.232 nmol/mouse
Cc1onc(O)c1C[C@H](N)C(=O)O [(S)-AMPA]	7.61	1.76	–	2.69	–	–	–	CD50 (Mus musculus [9]): 16.1 nmol; CD50 (Mus musculus [10]): 2.9 nmol; CD50 (Mus musculus [11]): 3.18 nM; CD50 (Mus musculus [12]): 15.7 nmol; CD50 (Mus musculus [13]): 6.7 nmol/mouse
O=C(O)C1=NO[C@H]2CN[C@H](C(=O)O)[C@@H]12	–	0.027	> 100	0.039	0.19 nmol	0.48	1.3	CD50 (Mus musculus [14]): 0.43 nM; CD50 (Mus musculus [15]): 0.99 nM; CD50 (Mus musculus [16]): 1.26 nM; CD50 (Mus musculus [19]): 0.5 nM
O=C(O)C1=NO[C@H]2[C@@H]1CN[C@@H]2C(=O)O	17.5	8.48	23	–	–	48	24.7	Ratio [20]: 1.1; CD50 (Mus musculus [21]): 24.82 nM; Ratio [22]: 1.4; CD50 (Mus musculus [23]): 39.9 nM; Ratio [24]: 2.9
